Publication PMC8146789, “20-Hydroxyecdysone, from Plant Extracts to Clinical Use: Therapeutic Potential for the Treatment of Neuromuscular, Cardio-Metabolic and Respiratory Diseases” (Biomedicines, 2021)
Where two headings read alike, the source gives them in different places.

Assays:
[1] = design: method as in doi:10.1007/BF02234932; conditions: 15 mg/day, 10 days; ref [166]; cited from earlier work
rabbits = conditions: up to 100 mg/kg, ref [121]; cited from earlier work
[2] = repeated dose toxicity study (39-week); conditions: dog, in vivo; dogs, 39-week repeated dose; Biophytis, unpublished data; read-out: No Observed Adverse Effect Level (NOAEL)
Text: More recently, a purified to pharmaceutical grade 20E (≥97% 20E purity) was used as a drug candidate in preclinical regulatory studies including safety pharmacology, genotoxicity and repeated toxicology in rodents (rats) and non-rodents (dog).

Giardiasis = system: Giardiasis; design: method as in PMID 12224262; conditions: 5 mg 3× or 4×/day, 10 days; ref [167]; cited from earlier work
[3] = design: method as in Wu et al. [124]; conditions: mice, ref Wu et al. [124], cited from earlier work

CC(C)(O)CC[C@@H](O)[C@](C)(O)[C@H]1CC[C@@]2(O)C3=CC(=O)[C@@H]4C[C@@H](O)[C@@H](O)C[C@]4(C)[C@H]3CC[C@]12C [20E, 2β,3β,14α,20R,22R,25-hexahydroxy-5β-cholest-7-en-6-one]
kidney function and microcirculation [1]: Improvement of kidney function and of microcirculation
effects after administration (rabbits): no effects were seen
NOAEL at 39 week [2]: 1000 mg/kg
patients with parasite elimination (Giardiasis): Parasite elimination in 68.7% of patients
quantitative distribution, Adrenals ([3]; 5 min): 0.184 µg/g
quantitative distribution, Bile ([3]; 5 min): 0.421 µg/g
quantitative distribution, Bladder ([3]; 5 min): 0.013 µg/g
quantitative distribution, Blood plasma ([3]; 5 min): 0.061 µg/g
quantitative distribution, Brain ([3]; 5 min): 0.013 µg/g
quantitative distribution, Feces ([3]; 5 min): 0.015 µg/g
quantitative distribution, Heart ([3]; 5 min): 0.062 µg/g
quantitative distribution, Kidney ([3]; 5 min): 0.137 µg/g
quantitative distribution, Large intestine ([3]; 5 min): 0.011 µg/g
quantitative distribution, Liver ([3]; 5 min): 0.312 µg/g
quantitative distribution, Lungs ([3]; 5 min): 0.116 µg/g
quantitative distribution, Skeletal muscle ([3]; 5 min): 0.021 µg/g
quantitative distribution, Small intestine ([3]; 5 min): 0.254 µg/g
quantitative distribution, Spinal cord ([3]; 5 min): 0.019 µg/g
quantitative distribution, Spleen ([3]; 5 min): 0.041 µg/g
quantitative distribution, Stomach ([3]; 5 min): 0.034 µg/g
quantitative distribution, Testis ([3]; 5 min): 0.048 µg/g
quantitative distribution, Urine ([3]; 5 min): 0.482 µg/g
quantitative distribution, Adrenals ([3]; 10 min): 0.139 µg/g
quantitative distribution, Bile ([3]; 10 min): 0.456 µg/g
quantitative distribution, Bladder ([3]; 10 min): 0.024 µg/g
quantitative distribution, Blood plasma ([3]; 10 min): 0.057 µg/g
quantitative distribution, Brain ([3]; 10 min): 0.014 µg/g
quantitative distribution, Feces ([3]; 10 min): 0.019 µg/g
quantitative distribution, Heart ([3]; 10 min): 0.052 µg/g
quantitative distribution, Kidney ([3]; 10 min): 0.123 µg/g
quantitative distribution, Large intestine ([3]; 10 min): 0.023 µg/g
quantitative distribution, Liver ([3]; 10 min): 0.251 µg/g
quantitative distribution, Lungs ([3]; 10 min): 0.069 µg/g
quantitative distribution, Skeletal muscle ([3]; 10 min): 0.023 µg/g
quantitative distribution, Small intestine ([3]; 10 min): 0.139 µg/g
quantitative distribution, Spinal cord ([3]; 10 min): 0.028 µg/g
quantitative distribution, Spleen ([3]; 10 min): 0.026 µg/g
quantitative distribution, Stomach ([3]; 10 min): 0.047 µg/g
quantitative distribution, Testis ([3]; 10 min): 0.036 µg/g
quantitative distribution, Urine ([3]; 10 min): 0.921 µg/g
quantitative distribution, Adrenals ([3]; 30 min): 0.098 µg/g
quantitative distribution, Bile ([3]; 30 min): 1.042 µg/g
quantitative distribution, Bladder ([3]; 30 min): 0.038 µg/g
quantitative distribution, Blood plasma ([3]; 30 min): 0.052 µg/g
quantitative distribution, Brain ([3]; 30 min): 0.015 µg/g
quantitative distribution, Feces ([3]; 30 min): 0.035 µg/g
quantitative distribution, Heart ([3]; 30 min): 0.035 µg/g
quantitative distribution, Kidney ([3]; 30 min): 0.098 µg/g
quantitative distribution, Large intestine ([3]; 30 min): 0.029 µg/g
quantitative distribution, Liver ([3]; 30 min): 0.213 µg/g
quantitative distribution, Lungs ([3]; 30 min): 0.057 µg/g
quantitative distribution, Skeletal muscle ([3]; 30 min): 0.028 µg/g
quantitative distribution, Small intestine ([3]; 30 min): 0.094 µg/g
quantitative distribution, Spinal cord ([3]; 30 min): 0.067 µg/g
quantitative distribution, Spleen ([3]; 30 min): 0.024 µg/g
quantitative distribution, Stomach ([3]; 30 min): 0.075 µg/g
quantitative distribution, Testis ([3]; 30 min): 0.029 µg/g
quantitative distribution, Urine ([3]; 30 min): 1.534 µg/g
quantitative distribution, Adrenals ([3]; 1 h): 0.081 µg/g
quantitative distribution, Bile ([3]; 1 h): 0.901 µg/g
quantitative distribution, Bladder ([3]; 1 h): 0.026 µg/g
quantitative distribution, Blood plasma ([3]; 1 h): 0.047 µg/g
quantitative distribution, Brain ([3]; 1 h): 0.013 µg/g
quantitative distribution, Feces ([3]; 1 h): 0.068 µg/g
quantitative distribution, Heart ([3]; 1 h): 0.033 µg/g
quantitative distribution, Kidney ([3]; 1 h): 0.071 µg/g
quantitative distribution, Large intestine ([3]; 1 h): 0.031 µg/g
quantitative distribution, Liver ([3]; 1 h): 0.112 µg/g
quantitative distribution, Lungs ([3]; 1 h): 0.053 µg/g
quantitative distribution, Skeletal muscle ([3]; 1 h): 0.017 µg/g
quantitative distribution, Small intestine ([3]; 1 h): 0.083 µg/g
quantitative distribution, Spinal cord ([3]; 1 h): 0.041 µg/g
quantitative distribution, Spleen ([3]; 1 h): 0.018 µg/g
quantitative distribution, Stomach ([3]; 1 h): 0.061 µg/g
quantitative distribution, Testis ([3]; 1 h): 0.026 µg/g
